From the NIST ThermoML archive (doi:10.1021/je101184s)
± gives the expanded uncertainty stated by the source.

Assay: relative permittivity at zero frequency (dimensionless)
Settings: 298.15 K; 101.33 kPa; Liquid; Coaxial cylinder capacitor

Compound	relative permittivity at zero frequency
CC(O)C(=O)O.OCCN(CCO)CCO [triethanolamine lactate]	59.7 ± 6
CC(=O)[O-].[NH3+]CCO [2-hydroxyethylammonium acetate]	58.3 ± 5
CCCCn1cc[n+](C)c1.F[P-](F)(F)(F)(F)F [1-butyl-3-methylimidazolium hexafluorophosphate]	14 ± 1.4
CCCCn1cc[n+](C)c1C.F[B-](F)(F)F [1-butyl-2,3-dimethylimidazolium tetrafluoroborate]	13.3 ± 1.2
CCCCn1cc[n+](C)c1.O=S(=O)([O-])C(F)(F)F [1-butyl-3-methylimidazolium trifluoromethanesulfonate]	12.9 ± 1
O=[N+]([O-])[O-].[NH3+]CCO [ethanolammonium nitrate]	60.9 ± 4
COP(=O)([O-])OC.Cn1cc[n+](C)c1 [1,3-dimethylimidazolium dimethylphosphate]	29.6 ± 3
CCCC[n+]1c(C)c(C)n(C)c1C.F[B-](F)(F)F	12 ± 1.2
CCCCn1cc[n+](C)c1C.F[P-](F)(F)(F)(F)F [1-butyl-2,3-dimethylimidazolium hexafluorophosphate]	9.4 ± 2
CCCC[N+]1(C)CCCC1.N#CN=C=[N-] [1-butyl-1-methylpyrrolidinium dicyanamide]	18 ± 1.6
CCn1cc[n+](C)c1.O=S(=O)([O-])O [1-ethyl-3-methylimidazolium hydrogen sulfate]	18.4 ± 2
CCCCS(=O)(=O)[O-].CCn1cc[n+](C)c1 [1-ethyl-3-methylimidazolium butylsulfonate]	30 ± 3
CCOP(=O)([O-])OCC.CCn1cc[n+](C)c1 [1-ethyl-3-methylimidazolium diethyl phosphate]	16.9 ± 1.6
CCn1cc[n+](C)c1C.O=S(=O)([N-]S(=O)(=O)C(F)(F)F)C(F)(F)F	12.8 ± 0.8
CCn1cc[n+](C)c1.O=S(=O)([O-])C(F)(F)F [1-ethyl-3-methylimidazolium trifluoromethanesulfonate]	16.5 ± 1
CCCCn1cc[n+](C)c1.N#C[S-] [1-butyl-3-methylimidazolium thiocyanate]	13.7 ± 1.6
CCCCn1cc[n+](C)c1C.O=S(=O)([N-]S(=O)(=O)C(F)(F)F)C(F)(F)F	14 ± 1.6
C[n+]1ccn(CCO)c1.F[B-](F)(F)F [1-(2-hydroxyethyl)-3-methylimidazolium tetrafluoroborate]	23.3 ± 2
CCCCn1c(C)c(C)[n+](C)c1C.O=S(=O)([N-]S(=O)(=O)C(F)(F)F)C(F)(F)F	15 ± 1.6
CCCCC[N+](CC)(CC)CC.O=S(=O)([N-]S(=O)(=O)C(F)(F)F)C(F)(F)F [triethylpentylammonium bis(trifluoromethylsulfonyl)imide]	12.5 ± 1.4
Cl.Cn1ccnc1 [1-methylimidazolium chloride]	13.8 ± 2
Br.Cn1ccnc1 [1-methylimidazolium bromide]	16.6 ± 2.4
CC(O)C(=O)[O-].[NH3+]CCO (stereo unspecified) [2-hydroxyethylammonium lactate]	85.6 ± 8
CCCCn1cc[n+](C)c1.F[B-](F)(F)F [1-butyl-3-methylimidazolium tetrafluoroborate]	13.9 ± 0.8
CC(=O)O.OCCN(CCO)CCO [triethanolammonium acetate]	31 ± 3
CCOS(=O)(=O)[O-].CCn1cc[n+](C)c1 [1-ethyl-3-methylimidazolium ethyl sulfate]	35 ± 3
